In patent US5352591A, “Aldolase enzyme process for making 5-azido-5-deoxy-hexulose-1-phosphate” (The Scripps Research Institute, priority 1993, dated 1994):
“Also recorded” adds a separate entry of the source. Where two headings read alike, the source gives them in different places.

Legend:
[1] = target: T1, α-Glucosidase (brewer yeast) (Saccharomyces cerevisiae, UniProt P53341); test: Inhibition of α-glucosidase (Lineweaver-Burk, p-nitrophenol release); assay type: biochemical; settings: pH 6.5
T1 construct: purchased Sigma
T1 sequence (P53341 whole entry): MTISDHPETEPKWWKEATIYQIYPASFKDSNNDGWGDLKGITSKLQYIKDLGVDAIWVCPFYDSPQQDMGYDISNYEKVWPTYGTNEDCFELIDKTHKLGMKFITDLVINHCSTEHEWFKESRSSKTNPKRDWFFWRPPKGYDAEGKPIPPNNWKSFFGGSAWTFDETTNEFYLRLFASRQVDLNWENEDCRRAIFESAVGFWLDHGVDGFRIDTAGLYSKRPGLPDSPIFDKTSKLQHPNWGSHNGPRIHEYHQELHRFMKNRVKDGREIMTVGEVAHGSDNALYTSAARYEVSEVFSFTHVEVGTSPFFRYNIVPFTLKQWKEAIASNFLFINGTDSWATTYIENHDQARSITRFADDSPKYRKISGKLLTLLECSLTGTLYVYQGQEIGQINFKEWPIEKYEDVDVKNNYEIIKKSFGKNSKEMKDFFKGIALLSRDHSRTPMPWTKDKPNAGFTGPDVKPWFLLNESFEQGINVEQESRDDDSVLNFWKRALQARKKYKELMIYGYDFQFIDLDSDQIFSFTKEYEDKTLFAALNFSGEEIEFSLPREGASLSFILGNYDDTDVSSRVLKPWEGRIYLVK
Procedure: The following solutions were prepared for enzymatic assay: 1. […] The following illustrates the procedure in detail.

β-Glucosidase (almond) [2] = test: Inhibition of β-glucosidase; assay type: biochemical; settings: pH 6.5
Procedure: The following solutions were prepared for enzymatic assay: 1. […] The assay enzyme solution was prepared by dissolving 20 milligrams of solid protein (4.8 Units/milligram solid) in 6 mL PIPES-NaOAc buffer solution. […] The following illustrates the procedure in detail.

[3] = target: T2, β-Galactosidase (E. coli) (Escherichia coli, UniProt P00722); test: Inhibition of β-galactosidase; assay type: biochemical; settings: at 1 mM; pH 6.5
T2 construct: purchased Sigma
T2 sequence (P00722 2-1024 limits assumed): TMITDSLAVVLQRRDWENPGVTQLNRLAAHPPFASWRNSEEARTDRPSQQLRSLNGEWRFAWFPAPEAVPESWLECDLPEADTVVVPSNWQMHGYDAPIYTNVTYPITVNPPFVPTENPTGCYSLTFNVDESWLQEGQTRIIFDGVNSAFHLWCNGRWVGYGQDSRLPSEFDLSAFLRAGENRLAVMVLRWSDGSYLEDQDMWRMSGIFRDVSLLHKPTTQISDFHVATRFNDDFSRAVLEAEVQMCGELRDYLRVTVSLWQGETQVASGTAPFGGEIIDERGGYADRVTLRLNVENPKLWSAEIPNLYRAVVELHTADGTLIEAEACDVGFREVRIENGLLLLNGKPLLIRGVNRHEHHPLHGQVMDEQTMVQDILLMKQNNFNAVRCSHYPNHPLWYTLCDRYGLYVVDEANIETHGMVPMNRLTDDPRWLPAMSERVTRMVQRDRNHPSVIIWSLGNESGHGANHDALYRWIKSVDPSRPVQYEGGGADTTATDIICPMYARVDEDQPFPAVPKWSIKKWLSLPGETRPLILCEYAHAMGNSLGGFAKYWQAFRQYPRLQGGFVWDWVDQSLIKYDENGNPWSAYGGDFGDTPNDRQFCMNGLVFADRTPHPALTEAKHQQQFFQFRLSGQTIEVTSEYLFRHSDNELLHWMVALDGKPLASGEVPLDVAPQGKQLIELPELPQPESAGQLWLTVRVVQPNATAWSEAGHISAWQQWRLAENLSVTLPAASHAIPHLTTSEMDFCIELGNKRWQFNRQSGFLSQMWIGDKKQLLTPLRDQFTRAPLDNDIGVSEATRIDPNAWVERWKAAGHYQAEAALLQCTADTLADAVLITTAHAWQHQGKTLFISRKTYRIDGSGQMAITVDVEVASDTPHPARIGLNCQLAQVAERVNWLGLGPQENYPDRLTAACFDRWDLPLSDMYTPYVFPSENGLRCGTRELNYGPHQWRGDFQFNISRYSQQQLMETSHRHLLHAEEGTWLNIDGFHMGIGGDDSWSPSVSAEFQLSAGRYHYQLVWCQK
Procedure: (§1) The following solutions were prepared for enzymatic assay:
6. β-D-Galactosidase: 0.5 milligrams of solid protein (345 Units/milligram) were dissolved in 1 mL PIPES-NaOAc buffer solution.
(§2) The following illustrates the procedure in detail.

[4] = target: T3, α-Mannosidase (jack bean) (Canavalia ensiformis, UniProt C0HJB3); test: Inhibition of α-mannosidase; assay type: biochemical
T3 construct: purchased Sigma
T3 sequence (C0HJB3 1-562 limits assumed): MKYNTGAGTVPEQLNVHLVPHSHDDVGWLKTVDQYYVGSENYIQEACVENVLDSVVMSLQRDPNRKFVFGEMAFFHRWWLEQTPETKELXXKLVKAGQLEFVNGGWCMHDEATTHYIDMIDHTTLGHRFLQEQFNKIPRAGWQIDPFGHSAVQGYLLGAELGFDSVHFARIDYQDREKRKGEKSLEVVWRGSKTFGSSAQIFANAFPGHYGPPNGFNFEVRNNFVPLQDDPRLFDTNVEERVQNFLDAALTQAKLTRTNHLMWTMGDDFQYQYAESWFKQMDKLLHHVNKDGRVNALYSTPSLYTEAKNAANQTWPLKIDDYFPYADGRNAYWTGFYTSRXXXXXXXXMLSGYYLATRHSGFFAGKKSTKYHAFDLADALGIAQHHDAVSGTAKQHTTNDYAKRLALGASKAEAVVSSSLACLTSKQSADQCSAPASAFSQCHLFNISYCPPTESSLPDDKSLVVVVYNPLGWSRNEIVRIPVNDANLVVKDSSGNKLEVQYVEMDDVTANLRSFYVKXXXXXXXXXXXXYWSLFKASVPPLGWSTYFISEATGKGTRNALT
T3 sequence (C0HJB3 563-981 limits assumed): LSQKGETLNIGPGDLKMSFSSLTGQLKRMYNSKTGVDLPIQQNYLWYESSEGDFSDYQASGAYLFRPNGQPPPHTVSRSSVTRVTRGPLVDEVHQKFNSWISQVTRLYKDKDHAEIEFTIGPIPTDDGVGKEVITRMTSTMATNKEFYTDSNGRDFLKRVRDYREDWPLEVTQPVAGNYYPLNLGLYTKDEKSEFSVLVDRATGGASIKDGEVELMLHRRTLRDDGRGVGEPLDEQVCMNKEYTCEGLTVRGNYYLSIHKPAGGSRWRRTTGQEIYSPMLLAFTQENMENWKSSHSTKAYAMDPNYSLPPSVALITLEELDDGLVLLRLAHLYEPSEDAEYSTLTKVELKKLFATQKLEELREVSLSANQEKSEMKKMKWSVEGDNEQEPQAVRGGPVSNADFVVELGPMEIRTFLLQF
Procedure: as §1
4. α-D-Mannosidase: 5 milligrams of solid protein were suspended in I mL of 3M ammonium sulfate [(NH4)2 SO4 ] and 0.1M zinc acetate (ZnOAc).
as §2

[5] = target: T1, α-Glucosidase (brewer yeast); settings: from Fleet et al., Tetrahedron Lett., 1985, 26:3127; cited from earlier work
β-Glucosidase (almond) [6] = settings: from Fleet et al. 1985; cited from earlier work
[7] = target: T2, β-Galactosidase (E. coli); settings: from Fleet et al. 1985; cited from earlier work
[8] = target: T3, α-Mannosidase (jack bean); settings: from Fleet et al. 1985; cited from earlier work
β-Xylosidase (A. niger) = β-Xylosidase (A. niger) (Aspergillus niger, UniProt O00089); settings: from Fleet et al. 1985; cited from earlier work
β-Xylosidase (A. niger), sequence (O00089 27-804): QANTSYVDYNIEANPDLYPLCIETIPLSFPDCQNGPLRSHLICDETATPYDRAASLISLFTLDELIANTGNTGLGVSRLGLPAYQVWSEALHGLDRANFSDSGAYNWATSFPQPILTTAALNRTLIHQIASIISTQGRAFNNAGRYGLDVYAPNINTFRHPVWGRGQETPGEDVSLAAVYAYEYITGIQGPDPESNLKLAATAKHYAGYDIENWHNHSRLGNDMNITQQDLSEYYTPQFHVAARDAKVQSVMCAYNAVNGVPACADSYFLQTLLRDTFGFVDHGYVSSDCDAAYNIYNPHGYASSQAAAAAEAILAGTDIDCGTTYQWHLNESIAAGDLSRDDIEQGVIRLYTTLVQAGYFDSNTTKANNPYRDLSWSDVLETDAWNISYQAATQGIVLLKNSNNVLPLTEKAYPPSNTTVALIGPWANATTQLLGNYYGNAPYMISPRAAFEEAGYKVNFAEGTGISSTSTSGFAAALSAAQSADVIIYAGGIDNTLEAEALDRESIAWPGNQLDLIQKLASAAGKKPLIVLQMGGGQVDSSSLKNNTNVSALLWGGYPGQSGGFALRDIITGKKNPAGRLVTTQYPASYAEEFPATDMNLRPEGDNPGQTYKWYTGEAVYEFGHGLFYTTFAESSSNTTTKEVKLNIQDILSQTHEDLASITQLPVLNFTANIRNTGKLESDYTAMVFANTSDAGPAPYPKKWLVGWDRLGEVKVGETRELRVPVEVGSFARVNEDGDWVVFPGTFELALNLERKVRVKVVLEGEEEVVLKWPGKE

glycosidases = settings: Fleet et al., Tetrahedron Lett. 1985, 26, 3127; cited from earlier work
α-L-Fucosidase = target: T4, α-L-Fucosidase (Homo sapiens, UniProt P04066); test: α-L-Fucosidase inhibition (fuc-pNP hydrolysis); assay type: biochemical
T4 sequence (P04066 32-466): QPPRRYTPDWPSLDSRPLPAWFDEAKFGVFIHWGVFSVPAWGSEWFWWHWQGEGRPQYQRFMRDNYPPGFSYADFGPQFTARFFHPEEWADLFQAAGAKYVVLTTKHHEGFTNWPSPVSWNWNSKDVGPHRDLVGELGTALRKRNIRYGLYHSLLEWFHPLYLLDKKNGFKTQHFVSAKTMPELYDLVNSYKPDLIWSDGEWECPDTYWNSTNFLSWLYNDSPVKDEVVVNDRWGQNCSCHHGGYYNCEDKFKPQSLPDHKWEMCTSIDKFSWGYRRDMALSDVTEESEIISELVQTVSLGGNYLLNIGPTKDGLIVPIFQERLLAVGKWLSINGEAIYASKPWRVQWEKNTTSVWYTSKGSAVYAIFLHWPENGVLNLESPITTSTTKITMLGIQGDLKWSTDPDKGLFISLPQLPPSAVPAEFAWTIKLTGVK
Procedure: α-L-Fucosidase activity was measured by incubating the enzyme (0.005 Units) with fuc-pNP ([…]) in 0.4 ml of 50 mM acetate buffer, pH 5.5 for 20 minutes at 25° C. in the absence and presence of the azasugars of the present invention. The reaction was stopped by the addition of 0.8 ml of 2 mM glycine buffer, pH 10.5. The amount of formed p-nitrophenol was determined by optical density spectroscopy at a wavelength of 400 nm.

[9] = test system: AIDS virus gp160 envelope protein precursor; settings: Walker et al., Proc. Natl. Acad. Sci. 1987; cited from earlier work

Question: For OC[C@@H]1N[C@H](CO)[C@@H](O)[C@@H]1O [Compound 2, (2R,5S)-dihydroxymethyl-(3R,4R)-dihydroxypyrrolidine], which Ki [1] is on record?
Answer: 2.8 µM

Question: What about the Ki (β-Glucosidase (almond) [2]) of the same compound?
Answer: 19 µM

Question: And the “Ki Values, β-Galactosidase (E. coli)” value [3]?
Answer: No inhibition

Question: And the “inhibition of an α-mannosidase (in words)” value [4]?
Answer: significant inhibition

Question: And the Ki ([4]; pH 6.5)?
Answer: 3100 µM

Question: Which Ki [5] does the source give for OC[C@H]1N[C@H](CO)[C@@H](O)[C@@H]1O [Compound X, (2R,5R)-dihydroxymethyl-(3R,4R)-dihydroxypyrrolidine] here?
Answer: 3.3 µM

Question: And the Ki (β-Glucosidase (almond) [6])?
Answer: 7.8 µM

Question: And the “Ki Values, β-Galactosidase (E. coli)” value [7]?
Answer: No inhibition

Question: And the “Ki Values, α-Mannosidase (jack bean)” value [8]?
Answer: no inhibitory activity; also recorded: no inhibition

Question: What about the Ki (β-Xylosidase (A. niger)) of the same compound?
Answer: 250 µM

Question: What about the “inhibition against glycosidases, including α- and β-glucosidases and β-xylosidase (in words)” value (glycosidases) of the same compound?
Answer: broad spectrum of inhibition

Question: Which results are given for C[C@@H]1OC(O)[C@@H](O)[C@H](O)[C@@H]1O (stereo partly drawn) [L-fucose]?
Answer: type of inhibition of fucosidase (α-L-Fucosidase; versus fuc-pNP): competitive inhibitor; Ki (α-L-Fucosidase; versus fuc-pNP, 50 mM acetate buffer pH 5.5, 25° C., read-out: Ki, α-L-Fucosidase inhibition): 300 µM

Question: Which “inhibition of processing of the AIDS virus gp160 envelope protein precursor (in words)” value [9] does the source give for OC1CN2CCC(O)C2C(O)C1O (stereo not shown) [castanospermine, 1,6,7,8tetrahydroxyoctahydroindolizine] here?
Answer: inhibit the processing

Question: With Oc1ccccc1 [phenol] as the compound, how does the Ki (α-L-Fucosidase) read?
Answer: 180 ± 20 µM

Question: And the “type of inhibition of fucosidase” value (α-L-Fucosidase; versus fuc-pNP)?
Answer: noncompetitive inhibitor
